Measurements published in US9695155B2, “Herbicidal substituted pyrimidinyloxy benzene compounds” (E. I. DU PONT DE NEMOURS AND COMPANY, priority 2013, dated 2017).

How the values were obtained:
Experiment in all cases: Test F preemergence
Details in all cases: 21 days, scale 0 to 100
[1] = tested on: bluegrass; type: in vivo, Poa annua
Excerpt: (§1) Seeds of plant species selected from bermudagrass (Cynodon dactylon), surinam grass (Brachiaria decumbens), large (Lg) crabgrass (Digitaria sanguinalis), crabgrass, naked (naked crabgrass, Digitaria nuda), foxtail, green (green foxtail, Setaria viridis), johnsongrass (Sorghum halepense), kochia (Kochia scoparia), morningglory (pitted morningglory, Ipomoea lacunosa), nutsedge, purple (purple nutsedge, Cyperus rotundus), ragweed (common ragweed, Ambrosia elatior), mustard, black (black mustard, Brassica nigra), guineagrass (Panicum maximum), dallisgrass (Paspalum dilatatum), barnyardgrass (Echinochloa crus-galli), sandbur (southern sandbur, Cenchrus echinatus), sowthistle (common sowthistle, Sonchus oleraceous), Italian ryegrass (Lolium multiflorum), signalgrass (broadleaf signalgrass, Brachiaria platyphylla), dayflower (Virginia (VA) dayflower, Commelina virginica), bluegrass (annual bluegrass, Poa annua), quackgrass (Elytrigia repens), mallow (common mallow, Malva sylvestris), buckwheat, wild (wild buckwheat, Polygonum convolvulus), leafy spurge (Euphorbia esula), chickweed (common chickweed, Stellaria media), wild poinsettia (Euphorbia heterophylla), and pigweed (Amaranthus retroflexus) were planted into a blend of loam soil and sand and treated preemergence with test chemicals formulated in a non-phytotoxic solvent mixture which included a surfactant.
(§2) Treated plants and controls were maintained in a greenhouse for 21 days, after which time all species were compared to controls and visually evaluated. Plant response ratings, summarized in Table F, are based on a scale of 0 to 100 where 0 is no effect and 100 is complete control. A dash (-) response means no test result.

[2] = tested on: morningglory (pitted morningglory); type: in vivo, Ipomoea lacunosa
Excerpt: as §1, §2

[3] = tested on: dayflower; type: in vivo, Commelina virginica
Excerpt: as §1, §2

[4] = tested on: nutsedge, purple; type: in vivo, Cyperus rotundus
Excerpt: as §1, §2

| Compound | Plant response rating, Bluegrass ([1]; 16 g ai/ha) | Plant response rating, Bluegrass ([1]; 31 g ai/ha) | Plant response rating, Bluegrass ([1]; 62 g ai/ha) | Plant response rating, Bluegrass ([1]; 125 g ai/ha) | Plant response rating, Bluegrass ([1]; 250 g ai/ha) | Plant response rating, Morningglory ([2]; 16 g ai/ha) | Plant response rating, Morningglory ([2]; 31 g ai/ha) | Plant response rating, Morningglory ([2]; 62 g ai/ha) | Plant response rating, Morningglory ([2]; 125 g ai/ha) | Plant response rating, Morningglory ([2]; 250 g ai/ha) | Plant response rating, Dayflower, VA ([3]; 16 g ai/ha) | Plant response rating, Dayflower, VA ([3]; 31 g ai/ha) | Plant response rating, Dayflower, VA ([3]; 62 g ai/ha) | Plant response rating, Dayflower, VA ([3]; 125 g ai/ha) | Plant response rating, Dayflower, VA ([3]; 250 g ai/ha) | Plant response rating, Nutsedge, Purple ([4]; 16 g ai/ha) | Plant response rating, Nutsedge, Purple ([4]; 31 g ai/ha) | Plant response rating, Nutsedge, Purple ([4]; 62 g ai/ha) | Plant response rating, Nutsedge, Purple ([4]; 125 g ai/ha) | Plant response rating, Nutsedge, Purple ([4]; 250 g ai/ha) |
| --- | --- | --- | --- | --- | --- | --- | --- | --- | --- | --- | --- | --- | --- | --- | --- | --- | --- | --- | --- | --- |
| N#Cc1cccc(Oc2ncc(F)cn2)c1-n1cc(C(F)(F)F)cn1 [Compound 79, 3-[(5-fluoro-2-pyrimidinyl)oxy]-2-[4-(trifluoromethyl)-1H-pyrazol-1-yl]benzonitrile] | 50 | 75 | 98 | 100 | 100 | 98 | 100 | 100 | 100 | 100 | 95 | 98 | 100 | 100 | 100 | 0 | 10 | 70 | 70 | 85 |
| N#Cc1cccc(Oc2ncc(Cl)cn2)c1-n1cc(OC(F)F)cn1 [Compound 97] | 5 | 35 | 75 | 98 | 100 | 10 | 60 | 90 | 98 | 100 | 35 | 80 | 98 | 98 | 100 | 15 | 35 | 30 | 75 | 90 |
